In patent publication US10508120B2, “TYK2 inhibitors and uses thereof” (Nimbus Lakshmi, Inc., priority 2017, dated 2019):
Like-named read-outs stand apart in the source and are kept apart here.

Columns and labels:
[1] = target: human TYK2 (JH2domain-pseudokinase) (Homo sapiens (Human), UniProt P29597); assay: TYK2 JH2 Domain Binding Assay (KINOMEscan)
Summary of the method: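 Competition binding of a DNA-tagged fusion of human TYK2 JH2 pseudokinase (G556–D888) with NFkB DNA-binding domain, from HEK293 extracts (<0.1 nM final), against immobilised ligand beads; 1 h shaking at room temperature, 0.9% DMSO. Bound kinase quantified by qPCR.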

[2] = target: Tyk2/JAK2 (heterodimeric complex) (Homo sapiens (Human), UniProt P29597); assay: IL-12 Induced pSTAT4 in Human PBMC; format: cell-based; settings: 1.7 ng/mL IL-12
Sequence of Tyk2/JAK2 (heterodimeric complex) (P29597 whole entry, other chains not shown): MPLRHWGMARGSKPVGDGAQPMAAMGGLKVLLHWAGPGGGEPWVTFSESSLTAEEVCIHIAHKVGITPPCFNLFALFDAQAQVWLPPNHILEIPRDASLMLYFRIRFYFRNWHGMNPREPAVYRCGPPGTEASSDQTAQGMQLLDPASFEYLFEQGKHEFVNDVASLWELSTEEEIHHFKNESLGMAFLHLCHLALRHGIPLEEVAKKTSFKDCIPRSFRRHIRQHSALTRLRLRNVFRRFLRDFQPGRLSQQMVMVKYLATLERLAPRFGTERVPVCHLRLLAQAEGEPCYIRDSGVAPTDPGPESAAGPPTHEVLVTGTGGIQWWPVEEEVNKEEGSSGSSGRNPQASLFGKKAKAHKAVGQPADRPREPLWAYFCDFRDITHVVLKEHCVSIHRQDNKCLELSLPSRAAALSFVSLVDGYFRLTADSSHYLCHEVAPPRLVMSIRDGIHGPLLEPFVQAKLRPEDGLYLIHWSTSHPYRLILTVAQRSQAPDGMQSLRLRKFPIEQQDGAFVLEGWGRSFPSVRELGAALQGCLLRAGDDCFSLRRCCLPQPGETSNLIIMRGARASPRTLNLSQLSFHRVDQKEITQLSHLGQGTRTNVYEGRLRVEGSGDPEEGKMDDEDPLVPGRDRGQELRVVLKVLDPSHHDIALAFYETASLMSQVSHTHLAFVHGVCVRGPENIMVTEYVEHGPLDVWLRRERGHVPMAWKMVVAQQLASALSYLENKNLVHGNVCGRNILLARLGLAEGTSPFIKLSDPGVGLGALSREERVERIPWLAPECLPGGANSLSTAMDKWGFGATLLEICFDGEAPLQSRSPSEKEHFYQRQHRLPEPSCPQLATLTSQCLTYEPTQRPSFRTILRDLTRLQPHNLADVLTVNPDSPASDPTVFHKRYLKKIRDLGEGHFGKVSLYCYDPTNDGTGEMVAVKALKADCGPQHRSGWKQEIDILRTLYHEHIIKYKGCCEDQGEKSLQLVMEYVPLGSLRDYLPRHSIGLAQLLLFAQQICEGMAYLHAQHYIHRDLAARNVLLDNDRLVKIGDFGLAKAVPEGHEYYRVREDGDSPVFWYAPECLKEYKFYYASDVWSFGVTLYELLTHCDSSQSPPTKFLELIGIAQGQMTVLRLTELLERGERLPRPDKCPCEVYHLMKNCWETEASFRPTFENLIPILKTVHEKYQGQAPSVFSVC
Text: The IL-12 Induced pSTAT4 assay evaluates the inhibition of IL-12 induced STAT4 phophorylation mediated by Tyk2/JAK2 (heterodimeric complex).

Tyk2 kinase domain (DH1) = Tyk2 kinase domain (DH1) (Homo sapiens (Human), UniProt P29597); assay: Tyk2 Radioactive Kinase Assay; format: biochemical; settings: for inhibition at 10 µM: read-out: Tyk2 JH1% Inhibition @ 10 μM
Sequence of Tyk2 kinase domain (DH1) (P29597 897-1176): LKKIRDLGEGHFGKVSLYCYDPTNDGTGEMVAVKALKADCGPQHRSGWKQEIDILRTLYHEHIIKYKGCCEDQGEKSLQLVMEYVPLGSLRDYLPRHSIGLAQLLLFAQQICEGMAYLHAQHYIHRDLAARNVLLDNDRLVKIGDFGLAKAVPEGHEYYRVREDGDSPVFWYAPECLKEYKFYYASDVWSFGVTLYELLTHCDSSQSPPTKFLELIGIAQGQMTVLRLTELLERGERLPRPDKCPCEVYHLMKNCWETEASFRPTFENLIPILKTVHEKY
Summary of the method: (§1)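 Values are single-concentration percent inhibition figures. They were obtained with 10 μM compound in a radioactivity-based kinase assay run separately on each enzyme.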

[3] = target: JAK2/JAK2 homdimeric complex (Homo sapiens (Human), UniProt O60674); assay: GM-CSF Induced pSTAT5 in Human PBMC; format: cell-based; settings: GM-CSF 5 ng/mL for 20 minutes, pSTAT5 by MSD, read-out: PBMC_GMCSF_pSTAT5 IC50
Sequence of JAK2/JAK2 homdimeric complex (O60674 whole entry, the tested form may be a part): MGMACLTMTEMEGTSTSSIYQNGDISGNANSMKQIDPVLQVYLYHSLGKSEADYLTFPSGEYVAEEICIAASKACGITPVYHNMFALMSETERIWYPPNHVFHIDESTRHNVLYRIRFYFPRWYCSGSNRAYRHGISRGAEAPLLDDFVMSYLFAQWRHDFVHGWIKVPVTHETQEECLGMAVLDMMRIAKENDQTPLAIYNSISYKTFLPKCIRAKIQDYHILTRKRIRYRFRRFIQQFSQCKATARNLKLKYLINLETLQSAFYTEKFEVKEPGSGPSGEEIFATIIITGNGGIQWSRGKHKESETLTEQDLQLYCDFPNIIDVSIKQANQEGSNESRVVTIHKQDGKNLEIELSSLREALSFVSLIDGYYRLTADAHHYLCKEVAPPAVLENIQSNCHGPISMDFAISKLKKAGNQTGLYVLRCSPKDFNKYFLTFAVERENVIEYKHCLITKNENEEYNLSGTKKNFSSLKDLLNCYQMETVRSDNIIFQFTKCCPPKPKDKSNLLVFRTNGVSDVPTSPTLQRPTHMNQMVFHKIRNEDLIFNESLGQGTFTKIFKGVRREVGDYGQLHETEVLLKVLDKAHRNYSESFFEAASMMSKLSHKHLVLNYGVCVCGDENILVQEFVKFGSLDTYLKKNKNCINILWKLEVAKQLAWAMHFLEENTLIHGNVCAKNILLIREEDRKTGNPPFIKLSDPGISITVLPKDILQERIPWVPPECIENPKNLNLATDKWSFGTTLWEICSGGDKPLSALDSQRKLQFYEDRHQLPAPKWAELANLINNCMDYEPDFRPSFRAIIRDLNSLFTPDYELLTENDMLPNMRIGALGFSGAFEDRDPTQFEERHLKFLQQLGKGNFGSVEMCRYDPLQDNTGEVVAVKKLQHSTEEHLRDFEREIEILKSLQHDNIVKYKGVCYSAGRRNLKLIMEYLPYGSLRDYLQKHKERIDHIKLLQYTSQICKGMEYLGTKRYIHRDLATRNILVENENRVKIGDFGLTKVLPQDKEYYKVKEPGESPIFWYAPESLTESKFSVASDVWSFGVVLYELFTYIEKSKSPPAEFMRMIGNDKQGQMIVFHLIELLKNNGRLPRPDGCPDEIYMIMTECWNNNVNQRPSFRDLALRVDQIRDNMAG
Sequence of JAK2/JAK2 homdimeric complex (P32927 17-897 partner): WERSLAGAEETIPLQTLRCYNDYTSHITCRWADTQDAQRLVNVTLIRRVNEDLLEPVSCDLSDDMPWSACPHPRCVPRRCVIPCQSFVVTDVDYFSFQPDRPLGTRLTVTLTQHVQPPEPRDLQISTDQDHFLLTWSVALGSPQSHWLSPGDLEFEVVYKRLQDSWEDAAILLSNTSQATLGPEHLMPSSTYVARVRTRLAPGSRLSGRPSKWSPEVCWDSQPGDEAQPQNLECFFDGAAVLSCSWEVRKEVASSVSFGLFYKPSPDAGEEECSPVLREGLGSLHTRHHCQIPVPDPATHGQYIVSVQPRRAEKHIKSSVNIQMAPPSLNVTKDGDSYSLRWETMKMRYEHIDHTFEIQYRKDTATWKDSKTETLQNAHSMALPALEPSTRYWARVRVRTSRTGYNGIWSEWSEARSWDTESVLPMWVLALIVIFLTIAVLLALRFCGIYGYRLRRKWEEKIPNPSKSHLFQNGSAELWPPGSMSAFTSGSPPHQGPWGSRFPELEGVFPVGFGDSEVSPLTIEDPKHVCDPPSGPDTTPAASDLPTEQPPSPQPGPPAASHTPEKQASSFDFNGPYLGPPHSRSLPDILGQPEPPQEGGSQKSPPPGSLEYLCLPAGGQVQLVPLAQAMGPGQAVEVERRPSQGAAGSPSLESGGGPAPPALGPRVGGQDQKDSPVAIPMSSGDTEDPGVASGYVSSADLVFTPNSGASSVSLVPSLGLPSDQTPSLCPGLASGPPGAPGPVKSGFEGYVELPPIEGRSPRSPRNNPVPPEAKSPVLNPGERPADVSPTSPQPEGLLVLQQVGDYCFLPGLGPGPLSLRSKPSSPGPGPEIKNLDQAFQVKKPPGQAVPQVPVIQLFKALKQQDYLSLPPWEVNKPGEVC

JAK2 kinase domain (JH1) = JAK2 kinase domain (JH1) (Homo sapiens (Human), UniProt O60674); assay: JAK2 Radioactive Kinase Assay; format: biochemical; settings: for inhibition at 10 µM: read-out: JAK2 JH1% Inhibition @ 10 μM
Sequence of JAK2 kinase domain (JH1) (O60674 849-1124): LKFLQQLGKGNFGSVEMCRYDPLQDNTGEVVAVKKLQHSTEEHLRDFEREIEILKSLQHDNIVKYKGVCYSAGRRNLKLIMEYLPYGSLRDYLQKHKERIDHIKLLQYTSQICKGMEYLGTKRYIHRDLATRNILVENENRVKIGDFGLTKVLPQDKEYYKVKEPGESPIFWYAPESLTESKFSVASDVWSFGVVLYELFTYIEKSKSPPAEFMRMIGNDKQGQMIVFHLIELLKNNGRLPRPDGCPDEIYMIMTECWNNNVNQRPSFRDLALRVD
Summary of the method: as §1

Sequence of human TYK2 (JH2domain-pseudokinase) (P29597 556-888): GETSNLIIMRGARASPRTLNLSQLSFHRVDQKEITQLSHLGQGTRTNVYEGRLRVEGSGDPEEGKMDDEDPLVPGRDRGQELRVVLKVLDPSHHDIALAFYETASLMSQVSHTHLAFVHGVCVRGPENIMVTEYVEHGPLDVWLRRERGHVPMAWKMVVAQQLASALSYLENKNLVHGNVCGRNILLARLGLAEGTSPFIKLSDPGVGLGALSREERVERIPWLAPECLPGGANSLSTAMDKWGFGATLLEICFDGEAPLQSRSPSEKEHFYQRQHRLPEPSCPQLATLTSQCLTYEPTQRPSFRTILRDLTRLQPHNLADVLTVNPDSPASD

Structure (SMILES) | Kd [1] [nM] | IC50 [2] [nM] | inhibition at 10 µM (Tyk2 kinase domain (DH1); compound at 10 μM, ATP 10 μM) [%] | IC50 [3] [nM] | inhibition at 10 µM (JAK2 kinase domain (JH1); compound at 10 μM, ATP 10 μM) [%] | inhibition at 10 µM (Tyk2 kinase domain (DH1); 10 μM compound, 10 μM ATP) [%] | inhibition at 10 µM (JAK2 kinase domain (JH1); 10 μM compound, 10 μM ATP) [%] | Tyk2 JH1% Inhibition @ 10 μM (Tyk2 kinase domain (DH1); compound at 10 μM, ATP 10 μM) | JAK2 JH1% Inhibition @ 10 μM (JAK2 kinase domain (JH1); compound at 10 μM, ATP 10 μM)
CNc1cc(Nc2cccn(-c3ncc(C)s3)c2=O)nc2c(C(=O)N[C@@H]3CC[C@@H]3O)cnn12 [I-677] | < 0.2 | < 100 | < 50 | > 2500 | < 50 |  |  |  | 
CNc1cc(Nc2cc(Cl)cn(C3CCCOC3)c2=O)nc2c(C(=O)N[C@H]3C[C@H]3F)cnn12 (stereo partly shown) [I-693] | < 0.2 | < 100 | < 50 | > 50000 | < 50 |  |  |  | 
[2H]C([2H])([2H])Oc1ncccc1Nc1cc(NC)n2ncc(C(=O)N[C@H]3C[C@H]3F)c2n1 [I-177] | < 0.2 | < 100 | < 50 | > 12500 | < 50 |  |  |  | 
CNc1cc(Nc2cccc(-c3cn(C)nc3F)n2)nc2c(C(=O)N[C@@H]3C[C@@H]3F)cnn12 [I-860] | < 0.2 | < 100 |  | > 50000 |  | < 50 | < 50 |  | 
CNc1cc(Nc2cccn(C3CCCCC3)c2=O)nc2c(C(=O)N[C@@H]3CC[C@@H]3O)cnn12 [I-1000] | < 0.2 | < 100 |  | > 50000 |  | < 50 | < 50 |  | 
CNc1cc(Nc2cccn(-c3ccc(F)cc3)c2=O)nc2c(C(=O)NC3CCC3)cnn12 [I-246] | < 0.2 | < 100 | < 50 | > 2500 | < 50 |  |  |  | 
CNc1cc(Nc2cccc(N3CCO[C@]4(CCOC4)C3)n2)nc2c(C(=O)NC3CC3)cnn12 [I-827] | < 0.2 | 100 to 500 |  | > 50000 |  | < 50 | < 50 |  | 
CNc1cc(Nc2cc(C)cc(C)c2)nc2c(C(N)=O)cnn12 [I-2, 5-((3,5-dimethylphenyl)amino)-7-(methylamino)pyrazolo[1,5-a]pyrimidine-3-carboxamide] | < 0.2 | < 100 | < 50 | > 50000 | < 50 |  |  |  | 
CNc1cc(Nc2cccn([C@H]3CC[C@H](OC)CC3)c2=O)nc2c(C(=O)N[C@@H]3CC[C@H]3O)cnn12 [I-635] | < 0.2 | < 100 | < 50 | > 50000 | < 50 |  |  |  | 
CNc1cc(Nc2cccn(C3CCN(CCF)CC3)c2=O)nc2c(C(=O)NCC(C)(C)CO)cnn12 [I-847] | < 0.2 | 100 to 500 |  | > 50000 |  | < 50 | < 50 |  | 
CNc1cc(Nc2cc(Cl)cn(C3CCCN(C)C3)c2=O)nc2c(C(=O)N[C@@H]3C[C@@H]3F)cnn12 (stereo partly shown) [I-759] | < 0.2 | < 100 | < 50 | > 50000 | < 50 |  |  |  | 
CNc1cc(Nc2cccn(-c3nccs3)c2=O)nc2c(C(=O)N[C@H]3C[C@H]3F)cnn12 [I-243] | 0.2 to 1 | < 100 | < 50 | > 2500 | < 50 |  |  |  | 
CNc1cc(Nc2cccn([C@H]3CC[C@H](OC)CC3)c2=O)nc2c(C(=O)NC[C@H](C)CO)cnn12 [I-829] | < 0.2 | < 100 |  | > 50000 |  | < 50 | < 50 |  | 
CNc1cc(Nc2cccc(-c3nccs3)c2Cl)nc2c(C(N)=O)cnn12 [I-16] | 0.2 to 1 | < 100 | > 90 | > 2500 | 70 to 90 |  |  |  | 
CNc1cc(Nc2cc(C)cnc2OCCOC)nc2c(C(=O)NC3CC3)cnn12 [I-281] | 0.2 to 1 | 100 to 500 | < 50 | > 2500 | < 50 |  |  |  | 
CNc1cc(Nc2cccn([C@H]3CC[C@H](OC)CC3)c2=O)nc2c(C(=O)N[C@@H]3CC[C@@H]3O)cnn12 [I-560] | < 0.2 | < 100 | < 50 | > 2500 | < 50 |  |  |  | 
CNc1cc(Nc2cccn([C@H]3CC[C@H](OC)CC3)c2=O)nc2c(C(=O)NC3CCC3)cnn12 [I-345] | < 0.2 | < 100 | < 50 | > 50000 | < 50 |  |  |  | 
CNc1cc(Nc2cccnc2OC(F)F)nc2c(C(=O)NC3CC3)cnn12 [I-154] | 0.2 to 1 | < 100 | < 50 | > 12500 | 50 to 70 |  |  |  | 
CNc1cc(Nc2cccnc2OC)nc2c(C(=O)NC3CCC3)cnn12 [I-4] | < 0.2 | < 100 | < 50 | > 12500 | < 50 |  |  |  | 
CNc1cc(Nc2cccn([C@H]3CC[C@](C)(OC)CC3)c2=O)nc2c(C(=O)N[C@@H]3CC[C@@H]3O)cnn12 [I-722, N-((1S,2R)-2-hydroxycyclobutyl)-5-((1-((1R,4S)-4-methoxy-4-methylcyclohexyl)-2-oxo-1,2-dihydropyridin-3-yl)amino)-7-(methylamino)pyrazolo[1,5-a]pyrimidine-3-carboxamide] | < 0.2 | < 100 |  | > 12500 |  |  |  | A (percent inhibition at 10 μM lower than 50) | A (percent inhibition at 10 μM lower than 50)
CNc1cc(Nc2cc(Cl)cn([C@@H]3CCCOC3)c2=O)nc2c(C(=O)NC3CC3)cnn12 [I-783] | < 0.2 | < 100 | < 50 | > 50000 | < 50 |  |  |  | 
CNc1cc(Nc2cccn(-c3cnn(CC4CCOCC4)c3)c2=O)nc2c(C(=O)N[C@H]3C[C@H]3F)cnn12 [I-407] | < 0.2 | < 100 | < 50 | > 12500 | < 50 |  |  |  | 
[2H]C([2H])([2H])Oc1ncccc1Nc1cc(NC)n2ncc(C(=O)N[C@H]3C[C@H](O)C3)c2n1 [I-321, N-((1r, 3r)-3-hydroxycyclobutyl)-5-((2-(methoxy-d3)pyridin-3-yl)amino)-7-(methylamino)pyrazolo[1,5-a]pyrimidine-3-carboxamide] | < 0.2 | < 100 | < 50 | > 2500 | < 50 |  |  |  | 
[2H]C([2H])([2H])Oc1ncccc1Nc1cc(NC)n2ncc(C(=O)NC3CCC3)c2n1 [I-176] | < 0.2 | < 100 | < 50 | > 50000 | < 50 |  |  |  | 
CNc1cc(Nc2cccn(-c3cc(C)n(C)n3)c2=O)nc2c(C(=O)NC3CC3)cnn12 [I-138] | < 0.2 | < 100 | < 50 | > 50000 | < 50 |  |  |  | 
CNc1cc(Nc2cccn(C3CCC4(CC3)OCCO4)c2=O)nc2c(C(=O)N[C@@H]3C[C@@H]3F)cnn12 [I-415, N-((1R,2S)-2-fluorocyclopropyl)-7-(methylamino)-5-((2-oxo-1-(1,4-dioxaspiro 14.51 decan-8-yl)-1,2-dihydropyridin-3-yl)amino)pyrazolo[1,5-a]pyrimidine-3-carboxamide] | < 0.2 | < 100 | < 50 | > 50000 | < 50 |  |  |  | 
